In assay [1] the test system is mouse pre-implantation embryos (129sv x OG2 Oct4-EGFP). Kind of assay: Isolation of ES-like cells from mouse morula/blastocysts pre-treated with 5-aza-cytidine (Oct4-EGFP reporter). In kind it is cell-based. Particulars: 1 μM for 24 h pre-treatment.
Experimental: Pre-pubertal (5-6 week old) 129sv females were super-ovulated using a routine protocol (1 IU PMSG and HCG injected i.p. 48h apart) before mating with OG2 males. […] The OG2 males, used as studs for mating, were C57/B16 strain and transgenic for an Oct4-EGFP construct. All pluripotent cells from these mice express GFP and this property was exploited in this study with GFP being used as a fluorescent marker to facilitate the identification of ESCs once derived. Zygotes were collected from the oviduct of humanely killed female mice. Cumulus cells were removed from zygotes by treatment with Hyaluronidase (300 IU/ml) in KSOM medium (Chemicon). The zygotes were carefully washed to remove hyaluronidase and transferred to a fresh dish with culture drops in a 37° C. incubator and allowed to develop to the morula/blastocyst stage. Treatment of Morula/Blastocyst with 1 μM of 5-aza-cytidine. Morula/blastocysts were cultured in the KSOM culture drops supplemented with 1 μM 5-aza-cytidine for 24 hr. F1 (CBA/C57) MEF's were used as a feeder layer to facilitate attachment of embryos and subsequent isolation and support of ESCs. MEF's were inactivated by treatment with mitomycin C (10 μg/ml) for 2.5 hr in the 37° C. incubator and plated at the rate of 3×10^5 cells/ml per 6 cm dish. […]
Assay [2] concerns Bovine D7.5 embryos at the blastocyst stage. The assay can be described thus: Culture of crushed whole bovine blastocysts on MEF feeder layer with 5′-azacytidine (primary and passaged outgrowths). In kind it is cell-based. The protocol:
Bovine D7.5 embryos at the blastocyst stage were crushed and depressed into mouse embryonic feeder (MEF) layers, using fine-tipped glass micropipettes or Ultra-fine needle insulin syringe, and cultured in alpha-MEM medium in presence of bFGF, hEGF, ITS, hrLIF, 2-beta-ME, Glutamax, NEAA and 20% FCS. On the same day or on the following day the media was replaced with fresh media containing (treated group) or not containing (untreated group) 5 μM 5′-azacytidine. The media in each group was changed every 3 days.
After seven to nine days, non-treated and treated “squashed” whole embryos developed morphologically distinguishable primary embryonal outgrowths.
These cell colonies reached confluence in 14-21 days, depending on the number of pieces that were placed in the dish. The growing colonies which developed into confluent monolayers expressed marker of pluripotency, such as Oct4.

SMILES strings stand for the structures.

For the molecule `Nc1ncn([C@@H]2O[C@H](CO)[C@@H](O)[C@H]2O)c(=O)n1` [5′-azacytidine, 5-azacytidine], the “Expression of GFP transgene under control of Oct4 in putative ESCs” value in assay [1] (then 0.1 μM in modified ESC medium) was “expressed a GFP transgene”. Further, in assay [1] (then 0.1 μM in modified ESC medium on feeder layer, 8-10 days of culture), the “Formation of ESC-like colonies from embryonal explants” value is reported as “colonies of cells resembling ESCs were observed”. The “Cell composition/morphology of primary embryonal outgrowth (treated outgrowth, TRO)” value in assay [2] (5 μM, after seven to nine days of culture, untreated outgrowths contained pluripotent, trophoblast and primitive endoderm cells) is recorded as “consisting only of cells with morphology, characteristic of bovine ES-like cells”. Also, in assay [2] (5 μM, in control outgrowths only the PC part expressed the markers), the “Expression of markers of pluripotency Oct4, Rex1 and SSEA-1 in TRO outgrowths” value is listed as “all the cells expressed these markers”. In assay [2] (5 μM, over the next 9-12 days, without any changes in morphology), the “Diameter of TRO outgrowths” value is reported as “about 2 cm”. Besides, the “Same effects on primary and passaged cultures at reduced concentration” value in assay [2] (concentration reduced to below 2.5 μM) is on record as “not observed”. Moreover, the “Time for passaged colonies to reach confluence” value in assay [2] (passaged TRO in the presence of 5′-azacytidine, depends on number of pieces in the dish) lay in the range of 14 to 21 days. Also, the “Colony formation of passaged TRO outgrowths” value in assay [2] (primary TRO cultured 14-21 days, split into 600-800 μm pieces, passaged onto fresh feeder layer, cultured in the presence of 5′-azacytidine) is “able to form colonies of cells with uniform morphology, characteristic of bovine ES-like cells”.

Values taken from patent publication US20100138947A1, “Method for Producing Stem Cells or Stel Cell-Like Cells from Mammalian Embryos” (priority 2005, published 2010).
